Three compounds from US20080096850A1 (priority 2001, published 2008) can be followed below.

Common to all, as to format: cell-based, Staphylococcus aureus
The test system of assay [1] is TSST-1 production by S. aureus FRI-1169.
Assay [2] deals with TSST-1 production by S. aureus FRI-1187.
Assay [3] relates to TSST-1 production by S. aureus (MN8).
For the next assay, the system named is S. aureus (MN8).

Consider `Oc1cc(Cl)ccc1Oc1ccc(Cl)cc1Cl` [Triclosan, triclosan], for which, in assay [1], the “ELISA: TSST-1 ng/OD unit” value was 40 ng/OD unit and the “Reduction of Toxin %” value is listed as 96%. In addition, in assay [2], the “ELISA: TSST-1 ng/OD unit” value came out at 95 ng/OD unit and the “Reduction of Toxin %” value was 86%.

Turning to `Oc1c(Cl)cc(Cl)c(Cl)c1Cc1c(O)c(Cl)cc(Cl)c1Cl` [Hexachlorophene, hexachlorophene], the “ELISA: TSST-1 ng/OD unit” value in assay [3] is 330 ng/OD unit.

Consider “4-hydroxydiphenyl methane [4-Hydroxydiphenyl-methane]”, for which the “ELISA: TSST-1 ng/OD unit” value in assay [3] came to 785 ng/OD unit. Moreover, in the assay with S. aureus (MN8), the CFU/mL stood at 1.1E+08 CFU/mL and the “Optical Density 600 nm” value is 0.581.
